In this experiment the target is T1, FAST (Halorhodospira halophila, UniProt P16113, C69G/Y94W/T95M/F96I/D97P/Y98T/Q99S/M100R/T101G).
T1 construct: gene pyp; C-terminal His6 tag in NMR structure
T1 sequence (P16113 1-125 C69G/Y94W/T95M/F96I/D97P/Y98T/Q99S/M100R/T101G): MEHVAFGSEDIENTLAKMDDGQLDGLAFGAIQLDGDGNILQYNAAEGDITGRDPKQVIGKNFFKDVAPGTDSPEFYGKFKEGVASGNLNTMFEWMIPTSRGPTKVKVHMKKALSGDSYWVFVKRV
Description: solution NMR structure of the complex. The class given is binding. The following applies: pH 7.0, 25 °C (1H NMR spectra); 13C/15N-labelled protein.

Here are results for one compound from publication PMC8132994, “NanoFAST: structure-based design of a small fluorogen-activating protein with only 98 amino acids” (Chemical Science, 2021).

Take `COc1cc(O)ccc1/C=C1N=C(/C=C/c2ccncc2)N(C)C\1=O` [N871b]: the “solution NMR structure of the complex” value is “solved the spatial structure of the protein in complex with a promising ligand N871b”.
